# From patent US20130065847A1, “ENDOPARASITICIDAL COMPOSITIONS” (priority 2010, published 2013)
# System: Cooperia Curticei
# Assay: In-vivo test on Cooperia curticei on sheep using peroral application
# Settings: Monepantel 0.625 mg/kg, Abamectin 0.05 mg/kg; for Efficacy [%]: 100×(C−T)/C of worm count means vs untreated control, days 14-17; for Efficacy [%] / log [Worm count] [geometric mean value] / Reduction worm count [factor] / Reduction log [worm count]: L4 stage, oral, combination 0.625 & 0.05 mg/kg; for Worm count [Geometric mean value]: experimentally induced infection, treated at L4 stage, single oral application, combination 0.625 & 0.05 mg/kg bodyweight, slaughter days 14-17 after treatment, untreated control 4266; for log [Worm count] [geometric mean value]: log transformed worm counts, untreated control 3.631; for Reduction worm count [factor]: observed; for Reduction worm count [factor] / Reduction log [worm count]: vs untreated control
# Text: In-Vivo Test on Cooperia Curticei on Sheep Using Peroral Application
# The study concerned a blinded parallel-group efficacy study against the L4 stage of the subject nematodes. The experimental induced worm burdens of monepantel/abamectin combination treated animals were compared to those of an untreated control group and sheep treated animals with either monepantel or abamectin mono-formulations.
# To this end the required larvae were generated first of all through culturing of characterized field isolates. Each animal then received the same dose of L3 (infective) larvae, and their larvae burdens were allowed time to mature. Once the larvae reached the L4 stage, the sheep were allocated to treatment groups 1, 2, 3 and 4 and treated as defined in the Table below:
# Oral application using the above described formulations: […]
# Two weeks after treatment (days 14-17) the sheep were slaughtered, their gastro-intestinal tracts recovered and processed for enumeration of total worm burdens. The primary measure of efficacy was calculated from the mean worm reduction in groups 2-4 when compared to the untreated control group 1. Efficacies were calculated using the formula
# wherein C and T are the worm count means of the Control and Treated groups, respectively.
# To this end, worm counts were log transformed as follows: […]
Molecule,Efficacy [%],Worm count [Geometric mean value],log [Worm count] [geometric mean value],Reduction worm count [factor],Reduction log [worm count]
"C[C@](C#N)(COc1cc(C#N)ccc1C(F)(F)F)NC(=O)c1ccc(SC(F)(F)F)cc1 [Monepantel, N-((1S)-1-cyano-2-(5-cyano-2-trifluoro-methylphenoxy)-1-methylethyl)-4-trifluoromethylsulfanylbenzamide]",66.0,1453,3.165,~2.9,−0.466
abamectin,68.3,1352,3.134,~3.1,−0.497
